Experimental data: BindingDB's records for patent US12286435 (Bionna (Beijing) Medical Technology, 2025)

Tests used:
[1] = molecular target: T1, Bromodomain-containing protein 4 [58-164] (Homo sapiens, UniProt O60885); experiment: Determination of the value of binding affinity constant (KO between the compound and BRD4 BD1 protein
T1 construct: 58-164
Description: The multifunctional microplate reader was a product of TECAN, model: SPARK 10M. Buffer: 100 mM potassium phosphate (pH 6.5), 2% ethylene glycol (Sigma) and 0.01% Trition X-100 (Sigma). The experimental water was Millipore-Q pure water.The specific experimental steps were as follows.First, the compound to be tested was dissolved in ethylene glycol to prepare into a 10 mM standard stock solution. Subsequently, the standard stock solution of the compound to be tested was diluted into a working sample solution with the buffer in an EP tube and ready for use. The concentration of the prepared working sample solution was 5 times of the highest sample concentration required on the test plate (5×test compound solution).[…] of a 5× test compound solution of a sample A was added to wells B1-B3 of a 96-well plate, and 40 μL of a 5× test compound solution of a sample B was added to wells B7-B9 of the 96-well plate, respectively. 20 uL of the buffer was added to the remaining wells, except for wells B1-B3 and B7-B9. Then, 20 uL of a solution was taken from wells B1-B3 to C1-C3, and this 2-fold dilution was repeated from C1-C3 until H4-H6; in the same way, 20 uL of a solution was taken from B7-B9 to C7-C9, this 2-fold dilution was repeated from C7-C9 until H10-H12.

[2] = molecular target: T2, Bromodomain-containing protein 4 [348-457] (Human, UniProt O60885); experiment: Determination of the value of binding affinity constant (KO between the compound and BRD4 BD2 protein
T2 construct: 348-457
Description: The multifunctional microplate reader was a product of TECAN, model: SPARK 10M. Buffer: 100 mM potassium phosphate (pH 6.5), 2% ethylene glycol (Sigma) and 0.01% Trition X-100 (Sigma). The experimental water was Millipore-Q pure water.The Ki value of the compound and BRD4 BD2 protein was measured according to the FP test procedures for detecting the Ki value of the compound and BRD4 BD1 protein except that the BRD4 BD1 protein was replaced with the BRD4 BD2 protein.

Row | Structure (SMILES) | Ki [1] [nM] | Ki [2] [nM]
1 | COC(=O)Cc1ccccc1NC1CCn2nncc2-c2ccc(-c3cnn(C)c3)cc21 (configuration not stated) [US12286435, Code LB175] | 43.5 | 18.6
2 | CCCCN1CC=C(c2ccc3c(c2)C(Nc2cccc(Cl)c2)CCn2nnc(C)c2-3)CC1 (configuration not stated) [US12286435, Code BH108] | 451 | 24.3
3 | Cc1nnn2c1-c1ccc(C3=CCNCC3)cc1C(Nc1c(F)cccc1Cl)CC2 (configuration not stated) [US12286435, Code LC198] | 2980 | 153
4 | COC(=O)Cc1ccc(NC2CCn3nnc(C)c3-c3ccc(-c4cnn(C)c4)cc32)cc1 (configuration not stated) [US12286435, Code LB38] | 44.8 | 9.29
5 | Cc1nnn2c1-c1ccc(-c3cnn(C)c3)cc1C(Nc1cccc(CCO)c1)CC2 (configuration not stated) [US12286435, Code LB71] | 92.2 | 30.5
6 | Cc1nnn2c1-c1ccc(C3=CCOCC3)cc1C(Nc1cccc(Cl)c1)CC2 (configuration not stated) [US12286435, Code LD31] | 39.1 | 17.1
